According to ChEMBL document CHEMBL2010784 (ACS Med Chem Lett, 2011):
Activity calls are given as the source filed them. The rule behind the calls is not given here.

Assays:
[1] = test system: Mammalian orthoreovirus 1; assay: Antiviral activity against Reovirus-1 infected in african green monkey Vero cells assessed as inhibition of viral-induced cytopathogenicity; type: functional, organism-based
[2] = Selectivity index, ratio of CC50 for human MT-4 cells to EC50 for HIV-1; type: toxicity, cell-based, MT4; settings: read-out: Ratio CC50/EC50
[3] = test system: Human immunodeficiency virus 1; assay: Antiviral activity against HIV-1 infected in human MT-4 cells assessed as inhibition of viral-induced cytopathogenicity after 4 days by MTT assay; type: functional, organism-based; settings: Human immunodeficiency virus 1, MT4, 96 h
[4] = test system: Influenza A virus; assay: Antiviral activity against Influenza A virus H1N1 infected in MDCK cells assessed as inhibition of viral-induced cytopathogenicity; type: functional, organism-based
[5] = test system: Vesicular stomatitis virus; assay: Antiviral activity against VSV infected in human HeLa cells assessed as inhibition of viral-induced cytopathogenicity; type: functional, organism-based
[6] = test system: Sindbis virus; assay: Antiviral activity against Sindbis virus infected in african green monkey Vero cells assessed as inhibition of viral-induced cytopathogenicity; type: functional, organism-based
[7] = test system: Feline coronavirus; assay: Antiviral activity against Feline coronavirus infected in CrFK cells assessed as inhibition of viral-induced cytopathogenicity; type: functional, organism-based
[8] = (§1) Cytotoxicity against human MT4 cells after 4 days by MTT assay; type: cell-based; settings: MT4 cells
[9] = test system: Coxsackievirus B4; assay: Antiviral activity against Coxsackie B4 virus infected in african green monkey Vero cells assessed as inhibition of viral-induced cytopathogenicity; type: functional, organism-based
[10] = test system: Influenza A virus; assay: Antiviral activity against Influenza A virus H3N2 infected in MDCK cells assessed as inhibition of viral-induced cytopathogenicity; type: functional, organism-based
[11] = test system: Respiratory syncytial virus; assay: Antiviral activity against RSV infected in human HeLa cells assessed as inhibition of viral-induced cytopathogenicity; type: functional, organism-based
[12] = test system: Punta Toro virus; assay: Antiviral activity against Punta Toro virus infected in african green monkey Vero cells assessed as inhibition of viral-induced cytopathogenicity; type: functional, organism-based
[13] = test system: Human respirovirus 3; assay: Antiviral activity against Parainfluenza-3 virus infected in african green monkey Vero cells assessed as inhibition of viral-induced cytopathogenicity; type: functional, organism-based
[14] = test system: Influenza B virus; assay: Antiviral activity against influenza B virus infected in MDCK cells assessed as inhibition of viral-induced cytopathogenicity; type: functional, organism-based
[15] = test system: Felid alphaherpesvirus 1; assay: Antiviral activity against Feline herpes virus infected in CrFK cells assessed as inhibition of viral-induced cytopathogenicity; type: functional, organism-based
[16] = Cytotoxicity against human HEL cells assessed as changes in cell morphology by microscopy; type: cell-based
[17] = test system: Human alphaherpesvirus 2; assay: Antiviral activity against HSV-2 G infected in HEL cells assessed as inhibition of viral-induced cytopathogenicity; type: functional, organism-based; settings: Human alphaherpesvirus 2, strain G
[18] = Selectivity index, ratio of MCC for human HEL cells to EC50 for HSV-1 KOS
[19] = test system: Human alphaherpesvirus 1; assay: Antiviral activity against HSV-1 KOS infected in HEL cells assessed as inhibition of viral-induced cytopathogenicity; type: functional, organism-based; settings: Human alphaherpesvirus 1, KOS
[20] = test system: MT4; assay: as §1; type: cell-based; settings: mt4, 96 h
[21] = test system: Human alphaherpesvirus 1; assay: Antiviral activity against ACV-resistant TK-deficient HSV-1 KOS infected in HEL cells assessed as inhibition of viral-induced cytopathogenicity; type: functional, organism-based; settings: Human alphaherpesvirus 1, KOS
[22] = Selectivity index, ratio of MCC for human HEL cells to EC50 for HSV-2 G

Row | SMILES | Activity [1] | selectivity ratio [2] | EC50 [3] | Activity [4] | Activity [5] | Activity [6] | Activity [7] | Activity [9] | Activity [10] | Activity [11] | Activity [12] | Activity [13] | Activity [14] | Activity [15] | MCC [16] | EC50 [17] | EC50 [19] | CC50 [20] | EC50 [21] | other results
1 | C#C[C@]1(CO)O[C@@H](n2cnc3c(=O)[nH]c(N)nc32)C[C@@H]1O | inactive | 933 | 1.5 nM | inactive | inactive | inactive | inactive | inactive | inactive | inactive | inactive | inactive | inactive | inactive |  |  |  |  |  | CC50 at 96 h [8]: 1400 nM
2 | C#C[C@]1(CO)O[C@@H](n2cnc3c(N)ncnc32)C[C@@H]1O | inactive | 1630 | 9.8 nM | inactive | inactive | inactive | inactive | inactive | inactive | inactive | inactive | inactive | inactive | inactive |  |  |  |  |  | CC50 at 96 h [8]: 16000 nM
3 | C#C[C@]1(CO)S[C@@H](n2cnc3c(=O)[nH]c(N)nc32)C[C@@H]1O | inactive | > 18200 | 5.5 nM | inactive | inactive | inactive | inactive | inactive | inactive | inactive | inactive | inactive | inactive | inactive | > 100 µM | 1500 nM | 3000 nM | > 100000 nM | 4500 nM | Selectivity Index [18]: >50; Selectivity Index [22]: >50
4 | Nc1nc2c(ncn2COC(CO)CO)c(=O)[nH]1 [GANCICLOVIR] |  |  |  |  |  |  |  |  |  |  |  |  |  |  | > 100 µM |  |  |  |  | 
5 | C#C[C@]1(CO)O[C@@H](n2ccc(N)nc2=O)C[C@@H]1O | inactive |  | 4.8 nM |  | inactive | inactive | inactive | inactive |  | inactive | inactive | inactive |  | inactive |  |  |  |  |  | 
6 | C#C[C@]1(CO)S[C@@H](n2ccc(N)nc2=O)C[C@@H]1O | inactive | 545 | 11 nM | inactive | inactive | inactive | inactive | inactive | inactive | inactive | inactive | inactive | inactive | inactive | > 100 µM | 1500 nM | 2000 nM | 6000 nM | 2500 nM | Selectivity Index [18]: >50; Selectivity Index [22]: >50
7 | C#C[C@]1(CO)S[C@@H](n2cnc3c(N)ncnc32)C[C@@H]1O | inactive | > 230 | 87 nM | inactive | inactive | inactive | inactive | inactive | inactive | inactive | inactive | inactive | inactive | inactive | > 100 µM | 4000 nM | 7000 nM | > 20000 nM | 8000 nM | 
